Where two headings read alike, the source gives them in different places.
How the values were obtained:
[1] = test system: human cancer cell line A549 (carcinomic human alveolar basal epithelial cells); test: Cytotoxicity (antiproliferative) CCK-8 assay, A549; conditions: for IC50: read-out: Cytotoxicity IC50 Lung A549; for toxicity toward A549 (in words): in vitro, CCK-8
Source text: (§1) The cytotoxicity of the new α-aminophosphine oxide and phosphonate acetals 4 and 5, β-keto-α-aminophosphonate 6, aziridines 7, 10 and 14, and allylic α-aminophosphine oxides and phosphonates 8, 9, 11, 12, 15 and 16 was investigated in vitro by checking their antiproliferative activities against the human cancer cell line A549 (carcinomic human alveolar basal epithelial cells). […] In order to assess growth inhibition, cell counting kit (CCK-8) assay was employed. […] Likewise, healthy lung cells, such as MRC-5 non-malignant lung fibroblasts were tested to study the selectivity of the cytotoxicity [49].
(§2) All stock solutions of the investigated compounds were prepared by dissolving the powered materials in appropriate amounts of DMSO. The final concentration of DMSO never exceeded 5% (v/v) in reactions. The stock solution was stored at 5 °C until it was used.
(§3) Cells were cultured according to the supplier’s instructions. […] On day 2, compounds were added and samples were incubated for 48 h. […] The absorbance of each well was determined by an Automatic ELISA Reader System (Multiskan FC, Thermo Fisher Scientific, Waltham, MA, USA) at 450 nm wavelength.

in vitro = conditions: human
Source text: as §1, §2, §3

[2] = test system: MRC-5 non-malignant lung fibroblasts; test: Cytotoxicity CCK-8 assay, MRC-5 (selectivity); conditions: in vitro, CCK-8
Source text: as §1, §2, §3

[3] = test system: Human colon carcinoma cell line (RKO); test: Cytotoxicity (antiproliferative) CCK-8 assay, RKO; conditions: for IC50: Homo sapiens, Colon carcinoma cell, 48 h, read-out: cytotoxicity value against human colon carcinoma cell line (RKO); for toxicity toward RKO (in words): in vitro, CCK-8
Procedure: Human colon carcinoma cell line (RKO) was also used to test the antiproliferative activity of some of our compounds. In order to assess growth inhibition, cell counting kit (CCK-8) assay was employed.
as §2
Cells were cultured according to the supplier’s instructions. Cells were seeded in 96-well plates at a density of 2–4 × 10^3 cells per well and incubated overnight in 0.1 mL of media supplied with 10% Fetal Bovine Serum (Lonza) in 5% CO2 incubator at 37 °C. On day 2, compounds were added and samples were incubated for 48 h. After treatment, 10 μL of cell counting kit-8 was added into each well for additional 2 h incubation at 37 °C. The absorbance of each well was determined by an Automatic ELISA Reader System (Multiskan FC, Thermo Fisher Scientific, Waltham, MA, USA) at 450 nm wavelength.

[4] = Cytotoxicity CCK-8 assay, MRC-5 (selectivity); conditions: human, MRC-5 non-malignant lung fibroblasts
Source text: as §1, §2, §3

[5] = CCK-8, 48 h incubation, concentration corresponding to 50% growth inhibition

Work on C[C@@]1(OCC(F)(F)F)N[C@H]1P(=O)(c1ccccc1)c1ccccc1 (relative stereo) [Compound 7, [(2S*,3S*)-3-Methyl-3-(2,2,2-trifluoroethoxy)aziridin-2-yl]diphenylphosphine oxide] yielded an IC50 ([1]; Homo sapiens, A549, 48 h) of 3.6 ± 0.7 µM, a melting point of 98 to 100 °C and an IC50 at 48 h (in vitro) of over 50 µM.
Work on C[C@@]1(Oc2ccccc2)N[C@H]1P(=O)(c1ccccc1)c1ccccc1 (relative stereo) [Compound 10a, [(2S*,3S*)-3-Methyl-3-phenoxyaziridin-2-yl]diphenylphosphine oxide] yielded an IC50 ([1]; Homo sapiens, A549, 48 h) of 13.3 ± 1.69 µM, a melting point of 124 to 126 °C and an IC50 at 48 h (in vitro) of over 50 µM.
For O=P(c1ccccc1)(c1ccccc1)[C@@H]1N[C@]1(Sc1ccccc1)c1ccccc1 (relative stereo) [Compound 14c, Diphenyl [(2S*,3S*)-3-phenyl-3-(phenylthio)aziridin-2-yl]phosphine oxide], the “toxicity toward MRC-5 cell line (in words)” value [2] was “good cytotoxicity”, the IC50 [3] was 9.7 µM and the IC50 ([1]; Homo sapiens, A549, 48 h) was 1.1 ± 0.32 µM. It also gave an IC50 at 48 h (in vitro) of 4.9 ± 0.49 µM.
In the case of COC(C)(OC)C(N)P(=O)(c1ccccc1)c1ccccc1 (centres unmarked) [Compound 4a, (1-Amino-2,2-dimethoxypropyl) diphenylphosphine oxide], the IC50 at 48 h [4] is reported as over 50 µM, the IC50 [3] is reported as over 50 µM and the “toxicity toward RKO (in words)” value [3] is reported as “do not exhibited any toxicity”. It also gave an IC50 ([1]; Homo sapiens, A549, 48 h) of 4.4 ± 0.72 µM and a melting point of 125 to 127 °C.
Molecule CCC(OC)(OC)C(N)P(=O)(c1ccccc1)c1ccccc1 (centres unmarked) [Compound 4b, (1-Amino-2,2-dimethoxybutyl)diphenylphosphine oxide] has an IC50 at 48 h [4] of over 50 µM, an IC50 ([1]; Homo sapiens, A549, 48 h) of 21.3 ± 0.22 µM and a melting point of 96 to 97 °C.
COC(OC)(c1ccccc1)C(N)P(=O)(c1ccccc1)c1ccccc1 (centres unmarked) [Compound 4c, (1-Amino-2,2-dimethoxy-2-phenylethyl)diphenylphosphine oxide] showed an IC50 at 48 h [4] of over 50 µM, an IC50 ([1]; Homo sapiens, A549, 48 h) of 16.1 ± 2.03 µM and a melting point of 113 to 115 °C.
For CCOC(C)(OCC)C(N)P(=O)(c1ccccc1)c1ccccc1 (centres unmarked) [Compound 4d, (1-Amino-2,2-diethoxypropyl)diphenylphosphine oxide], the IC50 at 48 h [4] was over 50 µM, the IC50 ([1]; Homo sapiens, A549, 48 h) was 9.6 ± 1.13 µM and the melting point was 126 to 128 °C.
In the case of COC(C)(OC)C(N)P(=O)(OC(C)C)OC(C)C (centres unmarked) [Compound 4e, Diisopropyl (1-amino-2,2-dimethoxypropyl)phosphonate], the IC50 [1, 5] is reported as 4.6 ± 0.31 µM.
Work on CCOP(=O)(OCC)C(N)C(C)(OC)OC (centres unmarked) [Compound 4f, Diethyl (1-amino-2,2-dimethoxypropyl)phosphonate] yielded an IC50 [1, 5] of 1.3 ± 0.1 µM.
For COC(C)(OC)C(NS(=O)(=O)c1ccc(C)cc1)P(=O)(c1ccccc1)c1ccccc1 (centres unmarked) [Compound 5a, N-[1-(Diphenylphosphoryl)-2,2-dimethoxypropyl]-4-methylbenzenesulfonamide], the IC50 at 48 h [4] was over 50 µM, the IC50 ([1]; Homo sapiens, A549, 48 h) was 8.2 ± 0.23 µM and the melting point was 205 to 207 °C.
For COC(C)(OC)C(NS(=O)(=O)c1ccc(C)cc1)P(=O)(OC(C)C)OC(C)C (centres unmarked) [Compound 5b, Diisopropyl [2,2-dimethoxy-1-((4-methylphenyl)sulfonamido)propyl]phosphonate], the IC50 at 48 h [4] was over 50 µM and the IC50 ([1]; Homo sapiens, A549, 48 h) was 1.7 ± 0.3 µM.
With CCOP(=O)(OCC)C(NS(=O)(=O)c1ccc(C)cc1)C(C)(OC)OC (centres unmarked) [Compound 5c, Diethyl [2,2-dimethoxy-1-((4-methylphenyl)sulfonamido)propyl]phosphonate] the IC50 ([1]; Homo sapiens, A549, 48 h) was 4.5 ± 0.45 µM and the IC50 (in vitro) was over 50 µM.
Molecule CCOC(C)(OCC)C(NS(=O)(=O)c1ccc(C)cc1)P(=O)(OCC)OCC (centres unmarked) [Compound 5d, Diethyl [2,2-diethoxy-1-((4-methylphenyl)sulfonamido)propyl]phosphonate] has an IC50 ([1]; Homo sapiens, A549, 48 h) of 3.7 ± 0.49 µM and an IC50 (in vitro) of over 50 µM.
For CC(=O)C(NS(=O)(=O)c1ccc(C)cc1)P(=O)(OC(C)C)OC(C)C (centres unmarked) [Compound 6, Diisopropyl [1-((4-methylphenyl)sulfonamido)-2-oxopropyl]phosphonate], the IC50 ([1]; Homo sapiens, A549, 48 h) was over 50 µM, the “toxicity toward A549 (in words)” value [1] was “do not exhibited any toxicity” and the melting point was 121 to 122 °C.
With C=C(OCC(F)(F)F)C(N)P(=O)(c1ccccc1)c1ccccc1 (centres unmarked) [Compound 8, [1-Amino-2-(2,2,2-trifluoroethoxy)allyl]diphenylphosphine oxide] the IC50 at 48 h [4] was over 50 µM, the IC50 ([1]; Homo sapiens, A549, 48 h) was over 50 µM and the “toxicity toward A549 (in words)” value [1] was “do not exhibited any toxicity effect”.
Work on C=C(OCC(F)(F)F)C(NS(=O)(=O)c1ccc(C)cc1)P(=O)(c1ccccc1)c1ccccc1 (centres unmarked) [Compound 9, N-[1-(Diphenylphosphoryl)-2-(2,2,2-trifluoroethoxy)allyl]-4-methylbenzenesulfonamide] yielded an IC50 at 48 h [4] of over 50 µM, an IC50 ([1]; Homo sapiens, A549, 48 h) of 3.5 ± 0.77 µM and a melting point of 201 to 203 °C.
With C=C(Oc1ccccc1)C(N)P(=O)(c1ccccc1)c1ccccc1 (centres unmarked) [Compound 11a, (1-Amino-2-phenoxyallyl)diphenylphosphine oxide] the IC50 at 48 h [4] was over 50 µM, the IC50 [3] was over 50 µM and the “toxicity toward RKO (in words)” value [3] was “do not exhibited any toxicity”. The IC50 ([1]; Homo sapiens, A549, 48 h) was 1.9 ± 0.13 µM.
In the case of C=C(Oc1ccc2ccccc2c1)C(N)P(=O)(c1ccccc1)c1ccccc1 (centres unmarked) [Compound 11b, [1-Amino-2-(naphyhalen-2-yloxy)allyl]diphenylphosphine oxide], the IC50 at 48 h [4] is reported as 33.6 ± 3.73 µM and the IC50 ([1]; Homo sapiens, A549, 48 h) is reported as 2.7 ± 0.44 µM.
In the case of C=C(Oc1ccccc1)C(NS(=O)(=O)c1ccc(C)cc1)P(=O)(OCC)OCC (centres unmarked) [Compound 12a, Diethyl [1-((4-methylphenyl)sulfonamido)-2-phenoxyallyl]phosphonate], the IC50 ([1]; Homo sapiens, A549, 48 h) is reported as 4.8 ± 0.9 µM, the melting point is reported as 117 to 119 °C and the IC50 (in vitro) is reported as over 50 µM.
C=C(Oc1ccc2ccccc2c1)C(NS(=O)(=O)c1ccc(C)cc1)P(=O)(OCC)OCC (centres unmarked) [Compound 12b, Diethyl [1-((4-methylphenyl)sulfonamido)-2-(naphthalen-2-yloxy)allyl]-phosphonate] gave an IC50 ([1]; Homo sapiens, A549, 48 h) of 2.1 ± 0.22 µM, a melting point of 147 to 149 °C and an IC50 (in vitro) of 17.5 ± 1.47 µM.
With C=C(Sc1ccccc1)C(N)P(=O)(c1ccccc1)c1ccccc1 (centres unmarked) [Compound 15a, [1-Amino-2-(phenylthio)allyl]diphenylphosphine oxide] the IC50 at 48 h [4] was 15.9 ± 2.79 µM, the IC50 [3] was over 50 µM and the “toxicity toward RKO (in words)” value [3] was “do not exhibited any toxicity”. The IC50 ([1]; Homo sapiens, A549, 48 h) was 2.6 ± 0.68 µM.
C=C(Sc1ccc(C)cc1)C(N)P(=O)(c1ccccc1)c1ccccc1 (centres unmarked) [Compound 15b, [1-Amino-2-(p-tolylthio)allyl]diphenylphosphine oxide] gave an IC50 at 48 h [4] of 14.9 ± 1.61 µM and an IC50 ([1]; Homo sapiens, A549, 48 h) of 5.1 ± 0.77 µM.
In the case of C=C(Sc1ccc(F)cc1)C(N)P(=O)(c1ccccc1)c1ccccc1 (centres unmarked) [Compound 15c, [1-Amino-2-((4-fluorophenyl)thio)allyl]diphenylphosphine oxide], the IC50 at 48 h [4] is reported as over 50 µM, the IC50 [3] is reported as over 50 µM and the “toxicity toward RKO (in words)” value [3] is reported as “do not exhibited any toxicity”. For the same molecule, the IC50 ([1]; Homo sapiens, A549, 48 h) was 0.1 ± 0.08 µM.
Molecule C=C(Sc1ccc(OC)cc1)C(N)P(=O)(c1ccccc1)c1ccccc1 (centres unmarked) [Compound 15d, [1-Amino-2-((4-methoxyphenyl)thio)allyl]diphenylphosphine oxide] has an IC50 at 48 h [4] of over 50 µM and an IC50 ([1]; Homo sapiens, A549, 48 h) of 2.6 ± 0.42 µM.
Work on C=C(Sc1ccccc1)C(N)P(=O)(OCC)OCC (centres unmarked) [Compound 15e, Diethyl [1-amino-2-(phenylthio)allyl]phosphonate] yielded an IC50 [1, 5] of 7.2 ± 0.49 µM.
C=C(Sc1ccccc1)C(NS(=O)(=O)c1ccc(C)cc1)P(=O)(c1ccccc1)c1ccccc1 (centres unmarked) [Compound 16a, N-[1-(Diphenylphosphoryl)-2-(phenylthio)allyl]-4-methylbenzenesulfonamide] showed an IC50 at 48 h [4] of over 50 µM, an IC50 ([1]; Homo sapiens, A549, 48 h) of 1.2 ± 0.09 µM and a melting point of 199 to 201 °C.
Work on C=C(Sc1ccc(C)cc1)C(NS(=O)(=O)c1ccc(C)cc1)P(=O)(c1ccccc1)c1ccccc1 (centres unmarked) [Compound 16b, N-[1-(Diphenylphosphoryl)-2-(p-tolylthio)allyl]-4-methylbenzene-sulfonamide] yielded an IC50 at 48 h [4] of over 50 µM, an IC50 ([1]; Homo sapiens, A549, 48 h) of 2.1 ± 0.15 µM and a melting point of 180 to 182 °C.
With C=C(Sc1ccccc1)C(NS(=O)(=O)c1ccc(C)cc1)P(=O)(OCC)OCC (centres unmarked) [Compound 16c, Diethyl [1-((4-methylphenyl)sulfonamido)-2-(phenylthio)allyl]phosphonate] the IC50 [3] was over 50 µM, the “toxicity toward RKO (in words)” value [3] was “do not exhibited any toxicity” and the IC50 ([1]; Homo sapiens, A549, 48 h) was 0.2 ± 0.07 µM. The melting point was 99 to 101 °C and the IC50 (in vitro) was 24.1 ± 3.55 µM.
With C=C(Sc1ccc(F)cc1)C(NS(=O)(=O)c1ccc(C)cc1)P(=O)(OCC)OCC (centres unmarked) [Compound 16d, Diethyl [2-((4-fluorophenyl)thio)-1-((4-methylphenyl)sulfonamido)-allyl]-phosphonate] the IC50 ([1]; Homo sapiens, A549, 48 h) was 3 ± 0.98 µM, the melting point was 117 to 119 °C and the IC50 (in vitro) was over 50 µM.
Molecule C=C(Sc1ccc(C)cc1)C(NS(=O)(=O)c1ccc(C)cc1)P(=O)(OCC)OCC (centres unmarked) [Compound 16e, Diethyl [1-((4-methylphenyl)sulfonamido)-2-(p-tolylthio)allyl]phos-phonate] has an IC50 ([1]; Homo sapiens, A549, 48 h) of 3.9 ± 0.63 µM, a melting point of 168 to 170 °C and an IC50 (in vitro) of over 50 µM.

Source: publication PMC7435673, “Synthesis of α-Aminophosphonic Acid Derivatives Through the Addition of O- and S-Nucleophiles to 2H-Azirines and Their Antiproliferative Effect on A549 Human Lung Adenocarcinoma Cells” (Molecules, 2020)
